Like-named read-outs stand apart in the source and are kept apart here. Marks after values point to notes of the source that are not given here.
Columns and labels:
[1] = system: vancomycin-resistant Enterococcus faecium isolate NTUH688 (DNSE); format: cell-based; conditions: broth microdilution, cation-adjusted Mueller-Hinton broth + 50 μg/mL calcium
Experimental: (§1) Blood culture isolates were obtained from a clinical microbiology laboratory. Enterococcus spp. were identified using the Vitek 2 identification system (bioMérieux Inc., La Balme les Grottes, France). The MIC of vancomycin was determined using a Sensititre GPN3F (Trek Diagnostics, West Sussex, England). […] We used cation-adjusted Mueller-Hinton broth (Becton, Dickinson, Le Pont-de-Claix, France) supplemented with 50 μg/mL calcium. The MIC breakpoints were based on the CLSI criteria of interpretation ([15]).

[2] = system: vancomycin-resistant Enterococcus faecium isolate NTUH664 (DSE); format: cell-based; conditions: broth microdilution, cation-adjusted Mueller-Hinton broth + 50 μg/mL calcium
Experimental: as §1

[3] = human healthy volunteers, cited from earlier work; for cmax: mean
Experimental: Therefore, 45 mg/kg s.c. and 90 mg/kg s.c might represent human doses of 8 mg/kg and 12 mg/kg, respectively ([34]). […] Since the efficacy was much more pronounced in the infrequently administered dosing regimens, Cmax/MIC is likely the most predictive ([35], [36]). The selected rat dose from which to simulate the human dose is slightly different from the others ([37][–][39 ...

[4] = system: daptomycin-susceptible, dose-dependent Enterococcus faecium (NTUH664); assay: Rat infective endocarditis model, DSE; conditions: for Bacterial load in blood / Rate of sterile vegetation / Bacterial load of vegetation: Wistar rat IE, DSE MIC 0.5 mg/L; for Bacterial load in blood / Bacterial load of vegetation: mean (SD); for Bacterial load in blood / Rate of sterile vegetation: n = 3; for Bacterial load of vegetation: sacrifice 24 h after last dose, n = 3, detection limit 2 log10 CFU/g; for veg_sterile: flag 1/0;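 as to all read-outs here: male Wistar rats with catheter-induced aortic valve endocarditis, dosed for 3 days, CFU counted in vegetation and blood, saline-treated infected controls, vegetation detection limit 2 log10 CFU/g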
Experimental: Approval for animal use was obtained from the National Taiwan University Institutional Animal Care and Use Committee before the commencement of the experiments. Endocarditis was induced in male Wistar rats weighing ~330 g by using previously developed methodologies with slight modifications ([46]). To expose the right carotid artery for the placement of an intravascular catheter, the animals were anesthetized with 1 μL/g of Zoletil 50 (1 mg/mL) plus Rompun (23.32 mg/mL). A sterile polyethylene catheter (Intramedic PE-10; Clay Adams, Parsippany, NJ, USA) was inserted through a small incision and advanced 4 cm into the left ventricle. The catheter was ligated and left in place for the duration of the experiment. 24 h after the catheter was placed across the aortic valve, the bacterial inoculum, which was presuspended in saline, and 1 mL of 10^8 CFU/mL of VRE were administered intravenously via the tail vein. We evaluated the actual inoculum based on the CFU count. The rats received antibiotic treatment at 24 h or 48 h after the bacterial inoculation.
The animals were treated for 3 days. A group of infected but phosphate-buffered saline-treated rats was used as a control. 24 h after the last treatment, the animals were sacrificed via anesthetic overdose. The aortic valve vegetation and 1 mL of blood were obtained aseptically from the sacrificed animals, weighed, and homogenized in 1 mL of phosphate-buffered saline. Serial dilutions of homogenized tissues were performed, and 100 μL of each dilution, including the undiluted sample, were plated on brain heart infusion agar to enumerate the bacteria. The animals were included in the final analysis only if they survived the entire therapy and if their catheters were found across the aortic valve in the left ventricle. The detection limit of the bacterial load of vegetation was 2 log10 CFU/g.

[5] = DSE MIC 0.5, delay 24 h, 12 mg/kg iv, rat 1 of 3 (row order)
[6] = DSE MIC 0.5, delay 24 h, 12 mg/kg iv, rat 2 of 3 (row order)
[7] = DSE MIC 0.5, delay 24 h, 12 mg/kg iv, rat 3 of 3 (row order)
[8] = DSE MIC 0.5, delay 24 h, 45 mg/kg sc, rat 1 of 3 (row order)
[9] = DSE MIC 0.5, delay 24 h, 45 mg/kg sc, rat 2 of 3 (row order)
[10] = DSE MIC 0.5, delay 24 h, 45 mg/kg sc, rat 3 of 3 (row order)
[11] = DSE MIC 0.5, delay 24 h, 90 mg/kg sc, rat 1 of 3 (row order)
[12] = DSE MIC 0.5, delay 24 h, 90 mg/kg sc, rat 2 of 3 (row order)
[13] = DSE MIC 0.5, delay 24 h, 90 mg/kg sc, rat 3 of 3 (row order)
[14] = DSE MIC 0.5, delay 48 h, 12 mg/kg iv, rat 1 of 3 (row order)
[15] = DSE MIC 0.5, delay 48 h, 12 mg/kg iv, rat 2 of 3 (row order)
[16] = DSE MIC 0.5, delay 48 h, 12 mg/kg iv, rat 3 of 3 (row order)
[17] = DSE MIC 0.5, delay 48 h, 45 mg/kg sc, rat 1 of 3 (row order)
[18] = DSE MIC 0.5, delay 48 h, 45 mg/kg sc, rat 2 of 3 (row order)
[19] = DSE MIC 0.5, delay 48 h, 45 mg/kg sc, rat 3 of 3 (row order)
[20] = DSE MIC 0.5, delay 48 h, 90 mg/kg sc, rat 1 of 3 (row order)
[21] = DSE MIC 0.5, delay 48 h, 90 mg/kg sc, rat 2 of 3 (row order)
[22] = DSE MIC 0.5, delay 48 h, 90 mg/kg sc, rat 3 of 3 (row order)
[23] = 48 h from inoculation to treatment, 12 mg/kg/day i.v. 3 days, SD
[24] = 48 h from inoculation to treatment, 45 mg/kg/day s.c. 3 days, SD

## CCCCCCCCCC(=O)N[C@@H](Cc1c[nH]c2ccccc12)C(=O)N[C@H](CC(N)=O)C(=O)N[C@@H](CC(=O)O)C(=O)N[C@@H]1C(=O)NCC(=O)N[C@@H](CCCN)C(=O)N[C@@H](CC(=O)O)C(=O)N[C@H](C)C(=O)N[C@@H](CC(=O)O)C(=O)NCC(=O)N[C@H](CO)C(=O)N[C@@H]([C@H](C)CC(=O)O)C(=O)N[C@@H](CC(=O)c2ccccc2N)C(=O)O[C@@H]1C [daptomycin, Daptomycin]
[1]
  daptomycin MIC: 8 µg/mL
[2]
  daptomycin MIC: 0.5 µg/mL
[3]; 8 mg/kg i.v.
  AUC0–24: 858.2 (24.9) mg × h/L
[3]; 12 mg/kg i.v.
  AUC0–24: 1,277.4 (19.8) mg × h/L
[3]; daily dose 8 mg/kg i.v.
  cmax: 123.3 (13.0) mg/L
[3]; daily dose 12 mg/kg i.v.
  cmax: 183.7 (13.6) mg/L
[4]; [5]
  blood_cfu: 0
  log_blood_cfu: 0
  log_veg_cfu: 0
  veg_cfu: 0
[4]; [6]
  blood_cfu: 0
  log_blood_cfu: 0
  log_veg_cfu: 0
  veg_cfu: 0
  veg_sterile: 1
[4]; [7]
  blood_cfu: 0
  log_blood_cfu: 0
  log_veg_cfu: 0
  veg_cfu: 0
  veg_sterile: 1
[4]; [8]
  blood_cfu: 0
  log_blood_cfu: 0
  log_veg_cfu: 0
  veg_cfu: 0
  veg_sterile: 1
[4]; [9]
  blood_cfu: 0
  log_blood_cfu: 0
  log_veg_cfu: 0
  veg_cfu: 0
  veg_sterile: 1
[4]; [10]
  blood_cfu: 0
  log_blood_cfu: 0
  log_veg_cfu: 0
  veg_cfu: 0
  veg_sterile: 1
[4]; [11]
  blood_cfu: 0
  log_blood_cfu: 0
  log_veg_cfu: 0
  veg_cfu: 0
  veg_sterile: 1
[4]; [12]
  blood_cfu: 0
  log_blood_cfu: 0
  log_veg_cfu: 0
  veg_cfu: 0
  veg_sterile: 1
[4]; [13]
  blood_cfu: 0
  log_blood_cfu: 0
  log_veg_cfu: 0
  veg_cfu: 0
  veg_sterile: 1
[4]; [14]
  blood_cfu: 0
  log_blood_cfu: 0
  log_veg_cfu: 3.4
  veg_cfu: 2500
  veg_sterile: 0
[4]; [15]
  blood_cfu: 0
  log_blood_cfu: 0
  log_veg_cfu: 3.26
  veg_cfu: 1800
  veg_sterile: 0
[4]; [16]
  blood_cfu: 0
  log_blood_cfu: 0
  log_veg_cfu: 3.17
  veg_cfu: 1480
  veg_sterile: 0
[4]; [17]
  blood_cfu: 0
  log_blood_cfu: 0
  log_veg_cfu: 4.66
  veg_cfu: 45600
  veg_sterile: 0
[4]; [18]
  blood_cfu: 0
  log_blood_cfu: 0
  log_veg_cfu: 4.38
  veg_cfu: 23900
  veg_sterile: 0
[4]; [19]
  blood_cfu: 0
  log_blood_cfu: 0
  log_veg_cfu: 0
  veg_cfu: 0
  veg_sterile: 1
[4]; [20]
  blood_cfu: 0
  log_blood_cfu: 0
  log_veg_cfu: 0
  veg_cfu: 0
  veg_sterile: 1
[4]; [21]
  blood_cfu: 0
  log_blood_cfu: 0
  log_veg_cfu: 0
  veg_cfu: 0
  veg_sterile: 1
[4]; [22]
  blood_cfu: 0
  log_blood_cfu: 0
  log_veg_cfu: 0
  veg_cfu: 0
  veg_sterile: 1
[4]; 24 h from inoculation to treatment, 12 mg/kg/day i.v. 3 days, SD
  Bacterial load in blood: 0 (0) log10 CFU/mL
[4]; 24 h from inoculation to treatment, 12 mg/kg/day i.v. 3 days
  Rate of sterile vegetation: 100
[4]; 24 h from inoculation to treatment, 45 mg/kg/day s.c. 3 days, SD
  Bacterial load in blood: 0 (0) log10 CFU/mL
[4]; 24 h from inoculation to treatment, 45 mg/kg/day s.c. 3 days
  Rate of sterile vegetation: 100
[4]; 24 h from inoculation to treatment, 90 mg/kg/day s.c. 3 days, SD
  Bacterial load in blood: 0 (0) log10 CFU/mL
[4]; 24 h from inoculation to treatment, 90 mg/kg/day s.c. 3 days
  Rate of sterile vegetation: 100
[4]; [23]
  Bacterial load in blood: 0 (0) log10 CFU/mL
  Bacterial load of vegetation: 3.27 (0.11) log10 CFU/g
[4]; 48 h from inoculation to treatment, 12 mg/kg/day i.v. 3 days
  Rate of sterile vegetation: 0
[4]; [24]
  Bacterial load in blood: 0 (0) log10 CFU/mL
  Bacterial load of vegetation: 4.75 (0.42)^g log10 CFU/g
[4]; 48 h from inoculation to treatment, 45 mg/kg/day s.c. 3 days
  Rate of sterile vegetation: 0
[4]; 48 h from inoculation to treatment, 90 mg/kg/day s.c. 3 days, SD
  Bacterial load in blood: 0 (0) log10 CFU/mL
[4]; 48 h from inoculation to treatment, 90 mg/kg/day s.c. 3 days
  Rate of sterile vegetation: 100
[4]; 48 h from inoculation to treatment, 90 mg/kg/day s.c. 3 days, 90 mg/kg/day
  Bacterial load of vegetation: 0 log10 CFU/g
[4]; 48 h from inoculation to treatment, 90 mg/kg/day s.c. 3 days, 90 mg/kg/day, SD
  Bacterial load of vegetation: 0 (0)^h^,^i log10 CFU/g

Reference: article PMC9603373 (Microbiology Spectrum, 2022)
